Assay results reported in publication PMC5633905, “Conformational dynamics of the essential sensor histidine kinase WalK” (Acta Crystallographica. Section D, Structural Biology, 2017).

Key:
Test in all cases: ITC
lpWalK (370-624) = molecular target: T1, lpWalK (370-624); assay type: binding, Lactiplantibacillus plantarum; settings: 20 mM Tris-HCl pH 8.0, 5 mM MgCl2, 25 °C, fixed 1:1 model
T1 construct: gene walK; catalytic region DHp + CA domains, residues 370-624, N-terminal His tag, pET-His, E. coli BL21(DE3); DHp homodimer

smVicK (196-450) = molecular target: T2, smVicK (196-450) (Streptococcus mutans, UniProt Q8DT64); assay type: binding
T2 construct: gene covS; DHp + CA domains, residues 196-450, pET-His vector, expressed in E. coli and purified as lpWalK

smVicK CA (271-450) = molecular target: T3, smVicK CA (271-450) (Streptococcus mutans, UniProt Q8DT64); assay type: binding
T3 construct: gene covS
T3 sequence (Q8DT64 entry or part of it): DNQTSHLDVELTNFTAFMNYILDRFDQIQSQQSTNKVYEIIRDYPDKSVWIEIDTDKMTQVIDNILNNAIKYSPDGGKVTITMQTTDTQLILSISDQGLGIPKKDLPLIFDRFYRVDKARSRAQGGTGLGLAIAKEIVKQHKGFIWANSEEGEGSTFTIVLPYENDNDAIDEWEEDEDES

T2 sequence (Q8DT64 entry or part of it): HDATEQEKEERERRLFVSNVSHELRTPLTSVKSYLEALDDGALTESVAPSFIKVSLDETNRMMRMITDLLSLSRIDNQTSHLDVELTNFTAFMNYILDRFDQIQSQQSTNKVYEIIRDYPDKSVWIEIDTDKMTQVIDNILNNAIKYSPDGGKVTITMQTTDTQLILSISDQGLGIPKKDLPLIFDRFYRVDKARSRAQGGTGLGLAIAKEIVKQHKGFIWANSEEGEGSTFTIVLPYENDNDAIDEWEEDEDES

SMILES	Kd (lpWalK (370-624))	Kd (smVicK (196-450))	Kd (lpWalK (370-624); gamma-phosphate not defined in the crystal)	Kd (smVicK CA (271-450))
Nc1ncnc2c1ncn2[C@@H]1O[C@H](COP(=O)(O)O)[C@@H](O)[C@H]1O [AMP]	1280 ± 95.5 µM			
Nc1ncnc2c1ncn2[C@@H]1O[C@H](COP(=O)(O)OP(=O)(O)NP(=O)(O)O)[C@@H](O)[C@H]1O [AMPPNP]		538 ± 32 µM	450 ± 6.36 µM	292 ± 15.2 µM
Nc1ncnc2c1ncn2[C@@H]1O[C@H](COP(=O)(O)OP(=O)(O)O)[C@@H](O)[C@H]1O [ADP]	1200 ± 17 µM	701 ± 165 µM		474 ± 97.5 µM
